The text below walks through data of ChEMBL document CHEMBL1159275, “Mycalolides D and E, new cytotoxic macrolides from a collection of the stony coral Tubastrea faulkneri” (1995).

The assay is described as follows: Cytotoxicity against human NCI60 cells. Conditions: read-out: LC50 (the source's name). Format: functional.

`CO[C@H]1C/C=C/c2nc(co2)-c2nc(co2)-c2nc(co2)[C@@H](OC)[C@@H](C)C(=O)/C=C/C[C@H](O)CC(=O)O[C@@H](C[C@H](OC)[C@@H](C)CC[C@@H](OC(=O)[C@@H](C)OC)[C@H](C)[C@H](OC(C)=O)[C@H](C)/C=C/N(C)C=O)[C@@H]1C` [MYCALOLIDE C]: the CC50 stood at 2500 nM.

In the case of `COCC(OC)C(=O)OC(CCC(C)C(CC1OC(=O)CC(O)C/C=C/C(=O)CC(C)C(=O)NC(=O)c2coc(n2)-c2coc(n2)/C=C/CC(OC)C1C)OC)C(C)C(OC(C)=O)C(C)/C=C/N(C)C=O` (configuration not stated) [MYCALOLIDE D], the CC50 stood at 600 nM.
